Test results: publication PMC11995724, “Antibiotic target discovery by integrated phenotypic and activity-based profiling of electrophilic fragments” (Cell chemical biology, 2025)

Assay: in vitro
Settings: human, hek293t cells

Row | Structure (SMILES) | viability at 48 h, 25 µM [%]
1 | C=CC(=O)NCC1(n2ccnn2)CC1 [2-L19, N-{[1-(1H-1,2,3-triazol-1-yl)cyclopropyl]methyl}prop-2-enamide] | 45.7
2 | C=CC(=O)N1CCC(C(=O)N2CCCN(c3nccs3)CC2)CC1 [2-L20, 1-{4-[4-(1,3-thiazol-2-yl)-1,4-diazepane-1-carbonyl]piperidin-1-yl}prop-2-en-1-one] | 90.1
3 | C=CC(=O)N1CCCCC1C1CCCO1 (stereo not shown) [2-L21, 1-[2-(oxolan-2-yl)piperidin-1-yl]prop-2-en-1-one] | 66.2
4 | C=CC(=O)N1CCCC(Oc2ccnc(C(=O)NC)c2)C1 (stereo not shown) [2-L22, N-methyl-4-{[1-(prop-2-enoyl)piperidin-3-yl]oxy}pyridine-2-carboxamide] | 99.6
5 | C=CC(=O)NC1CCN(c2ccccc2S(=O)(=O)CC)CC1 [2-M03, N-{1-[2-(ethanesulfonyl)phenyl]piperidin-4-yl}prop-2-enamide] | 82.2
6 | C=CC(=O)N(C)CC(=O)N1CCCC1c1nc(C)no1 (stereo not shown) [2-M04, N-methyl-N-{2-[2-(3-methyl-1,2,4-oxadiazol-5-yl)pyrrolidin-1-yl]-2-oxoethyl}prop-2-enamide] | 78.5
7 | C=CC(=O)N(Cc1ccc(OC)cc1)[C@@H]1CCCC[C@H]1O [2-M05, N-[(1R,2R)-2-hydroxycyclohexyl]-N-[(4-methoxyphenyl)methyl]prop-2-enamide] | 97.6
8 | C=CC(=O)NC(Cn1ccnc1)c1ccccc1 (stereo not shown) [2-M06, N-[2-(1H-imidazol-1-yl)-1-phenylethyl]prop-2-enamide] | 84.5
9 | C=CC(=O)N1CCCCC1CNC(C)=O (stereo not shown) [2-M07, N-{[1-(prop-2-enoyl)piperidin-2-yl]methyl}acetamide] | 186
10 | C=CC(=O)Nc1c(C)ccn2ncnc12 [2-M08, N-{7-methyl-[1,2,4]triazolo[1,5-a]pyridin-8-yl}prop-2-enamide] | 92
11 | C=CC(=O)NCCN1CCCCC1C (stereo not shown) [2-M09, N-[2-(2-methylpiperidin-1-yl)ethyl]prop-2-enamide] | 182
12 | C=CC(=O)N1CCC(C(=O)Nc2nnc(CC)s2)CC1 [2-M10, N-(5-ethyl-1,3,4-thiadiazol-2-yl)-1-(prop-2-enoyl)piperidine-4-carboxamide] | 98.8
13 | C=CC(=O)NCc1cccc(N2C(=O)NC3(CCCC3)C2=O)c1 [2-M11, N-[(3-{2,4-dioxo-1,3-diazaspiro[4.4]nonan-3-yl}phenyl)methyl]prop-2-enamide] | 89.7
14 | C=CC(=O)NCCc1nc(-c2ccccc2)nn1C [2-M12, N-[2-(1-methyl-3-phenyl-1H-1,2,4-triazol-5-yl)ethyl]prop-2-enamide] | 87.7
15 | C=CC(=O)Nc1cnc2cc(C)nn2c1 [2-M13, N-{2-methylpyrazolo[1,5-a]pyrimidin-6-yl}prop-2-enamide] | 136
16 | C=CC(=O)NCCC(=O)Nc1nc2n(n1)CCCC2 [2-M14, N-[2-({5H,6H,7H,8H-[1,2,4]triazolo[1,5-a]pyridin-2-yl}carbamoyl)ethyl]prop-2-enamide] | 109
17 | C=CC(=O)N1CCOCC2(CC2)C1 [2-M15, 1-{5-oxa-8-azaspiro[2.6]nonan-8-yl}prop-2-en-1-one] | 180
18 | C=CC(=O)N1CCOCC1CC(=O)c1ccco1 (stereo not shown) [2-M17, 1-{3-[2-(furan-2-yl)-2-oxoethyl]morpholin-4-yl}prop-2-en-1-one] | 194
19 | C=CC(=O)NCc1ccc(C(=O)N2CCC(c3nnc(C)o3)CC2)cc1 [2-M18, N-({4-[4-(5-methyl-1,3,4-oxadiazol-2-yl)piperidine-1-carbonyl]phenyl}methyl)prop-2-enamide] | 87.6
20 | C=CC(=O)N[C@@H](CN(C)C)c1ccccc1 [2-M19, N-[(1R)-2-(dimethylamino)-1-phenylethyl]prop-2-enamide] | 87.1
21 | C=CC(=O)NCc1nc(OC)cc(OC)n1 [2-M20, N-[(4,6-dimethoxypyrimidin-2-yl)methyl]prop-2-enamide] | 99.2
22 | C=CC(=O)Nc1ccc(C(=O)NC2CCN(S(C)(=O)=O)CC2)cc1 [2-M21, N-(1-methanesulfonylpiperidin-4-yl)-4-(prop-2-enamido)benzamide] | 90.2
23 | C=CC(=O)NCc1nnc(C2CCOCC2)[nH]1 [2-M22, N-{[5-(oxan-4-yl)-4H-1,2,4-triazol-3-yl]methyl}prop-2-enamide] | 93.3
24 | C=CC(=O)NCc1nc2ccccc2n1C1CC1 [2-N03, N-[(1-cyclopropyl-1H-1,3-benzodiazol-2-yl)methyl]prop-2-enamide] | 69.4
25 | C=CC(=O)N(C)CC(=O)N1CCC(c2nc3c(s2)CCCC3)CC1 [2-N04, N-methyl-N-{2-oxo-2-[4-(4,5,6,7-tetrahydro-1,3-benzothiazol-2-yl)piperidin-1-yl]ethyl}prop-2-enamide] | 92.5
26 | C=CC(=O)NCCCn1ccnc1C#N [2-N05, N-[3-(2-cyano-1H-imidazol-1-yl)propyl]prop-2-enamide] | 76.3

Row | Structure (SMILES) | viability at 48 h, 25 µM [%]
27 | C=CC(=O)N(CC)CC(=O)NC1CCN(C(C)=O)c2ccccc21 (stereo not shown) [2-N06, N-{[(1-acetyl-1,2,3,4-tetrahydroquinolin-4-yl)carbamoyl]methyl}-N-ethylprop-2-enamide] | 99.7
28 | C=CC(=O)NC(c1nccs1)C(F)(F)F (stereo not shown) [2-N07, N-[2,2,2-trifluoro-1-(1,3-thiazol-2-yl)ethyl]prop-2-enamide] | 84.1
29 | C=CC(=O)N(C)CC(=O)N1CCc2ccc(S(C)(=O)=O)cc2CC1 [2-N08, N-[2-(7-methanesulfonyl-2,3,4,5-tetrahydro-1H-3-benzazepin-3-yl)-2-oxoethyl]-N-methylprop-2-enamide] | 95.1
30 | C=CC(=O)NC(c1ccc(F)cc1)c1nccn1C (stereo not shown) [2-N09, N-[(4-fluorophenyl)(1-methyl-1H-imidazol-2-yl)methyl]prop-2-enamide] | 45.3
31 | C=CC(=O)N(C)CC(=O)N1CCN(c2nsc3ccccc23)CC1 [2-N10, N-{2-[4-(1,2-benzothiazol-3-yl)piperazin-1-yl]-2-oxoethyl}-N-methylprop-2-enamide] | 1.45
32 | C=CC(=O)NCCn1nnc2ccccc21 [2-N11, N-[2-(1H-1,2,3-benzotriazol-1-yl)ethyl]prop-2-enamide] | 67.3
33 | C=CC(=O)N(CC)CC(=O)N1CCCC1c1cn(C)nc1C (stereo not shown) [2-N12, N-{2-[2-(1,3-dimethyl-1H-pyrazol-4-yl)pyrrolidin-1-yl]-2-oxoethyl}-N-ethylprop-2-enamide] | 85.2
34 | C=CC(=O)NCCCc1conc1C [2-N13, N-[3-(3-methyl-1,2-oxazol-4-yl)propyl]prop-2-enamide] | 70.3
35 | C=CC(=O)N(C)CC(=O)NC1CCN(C(=O)c2ccc(C)cc2)CC1 [2-N14, N-methyl-N-({[1-(4-methylbenzoyl)piperidin-4-yl]carbamoyl}methyl)prop-2-enamide] | 66.3
36 | C=CC(=O)NCCn1cnc2ccsc2c1=O [2-N15, N-(2-{4-oxo-3H,4H-thieno[3,2-d]pyrimidin-3-yl}ethyl)prop-2-enamide] | 66
37 | C=CC(=O)N1CCC(C(=O)N2CCCC(c3cnn(C)c3)C2)CC1 (stereo not shown) [2-N16, 1-{4-[3-(1-methyl-1H-pyrazol-4-yl)piperidine-1-carbonyl]piperidin-1-yl}prop-2-en-1-one] | 99.6
38 | C=CC(=O)N(C)Cc1noc(C2CC2)n1 [2-N17, N-[(5-cyclopropyl-1,2,4-oxadiazol-3-yl)methyl]-N-methylprop-2-enamide] | 60.3
39 | C=CC(=O)Nc1ccc(C(=O)N2CCCCC2CS(C)(=O)=O)cc1 (stereo not shown) [2-N18, N-{4-[2-(methanesulfonylmethyl)piperidine-1-carbonyl]phenyl}prop-2-enamide] | 102
40 | C=CC(=O)NCc1ncccc1-n1cccn1 [2-N19, N-{[3-(1H-pyrazol-1-yl)pyridin-2-yl]methyl}prop-2-enamide] | 70.3
41 | C=CC(=O)N1CCC(C(=O)N2CCCCCC2c2ccco2)CC1 (stereo not shown) [2-N20, 1-{4-[2-(furan-2-yl)azepane-1-carbonyl]piperidin-1-yl}prop-2-en-1-one] | 80.3
42 | C=CC(=O)N1CSCC1C(=O)N1CCOCC1 (stereo not shown) [2-N21, 1-[4-(morpholine-4-carbonyl)-1,3-thiazolidin-3-yl]prop-2-en-1-one] | 74.9
43 | C=CC(=O)N(C)CC(=O)N1CCC2(CC1)CC2c1nnc(C(C)C)o1 (stereo not shown) [2-N22, N-methyl-N-(2-oxo-2-{1-[5-(propan-2-yl)-1,3,4-oxadiazol-2-yl]-6-azaspiro[2.5]octan-6-yl}ethyl)prop-2-enamide] | 84.6
44 | C=CC(=O)NCCc1ccccc1OC [2-O03, N-[2-(2-methoxyphenyl)ethyl]prop-2-enamide] | 105
45 | C=CC(=O)N1CCC(c2nc(C3CCC3)no2)CC1 [2-O04, 1-[4-(3-cyclobutyl-1,2,4-oxadiazol-5-yl)piperidin-1-yl]prop-2-en-1-one] | 84.1
46 | C=CC(=O)N(Cc1ccc2cnn(C)c2c1)CC(C)(C)C [2-O05, N-(2,2-dimethylpropyl)-N-[(1-methyl-1H-indazol-6-yl)methyl]prop-2-enamide] | 102
47 | C=CC(=O)NCCNC(=O)C1CC12CCSCC2 (stereo not shown) [2-O06, N-[2-({6-thiaspiro[2.5]octan-1-yl}formamido)ethyl]prop-2-enamide] | 88.3
48 | C=CC(=O)Nc1ccnn1C(C)C [2-O07, N-[1-(propan-2-yl)-1H-pyrazol-5-yl]prop-2-enamide] | 101
49 | C=CC(=O)NCCC(=O)NC1CCCCC12OCCO2 (stereo not shown) [2-O08, N-[2-({1,4-dioxaspiro[4.5]decan-6-yl}carbamoyl)ethyl]prop-2-enamide] | 106
50 | C=CC(=O)N(CC)Cc1cn(C)nn1 [2-O09, N-ethyl-N-[(1-methyl-1H-1,2,3-triazol-4-yl)methyl]prop-2-enamide] | 105
51 | C=CC(=O)N1CCC(Cc2ccccc2)CC1 [2-O10, 1-(4-benzylpiperidin-1-yl)prop-2-en-1-one] | 73
52 | C=CC(=O)NCc1ccccc1CN1C(=O)NC2(CCCCC2)C1=O [2-O11, N-{[2-({2,4-dioxo-1,3-diazaspiro[4.5]decan-3-yl}methyl)phenyl]methyl}prop-2-enamide] | 71
